Biological target: Epidermal growth factor receptor (Homo sapiens, UniProt P00533)
Assay: Displacement of [125I]-TGFalpha from human EGFR in human A431 cell membrane by SPA
Assay type: cell membranes, A-431

Chain of Epidermal growth factor receptor (P00533 whole entry): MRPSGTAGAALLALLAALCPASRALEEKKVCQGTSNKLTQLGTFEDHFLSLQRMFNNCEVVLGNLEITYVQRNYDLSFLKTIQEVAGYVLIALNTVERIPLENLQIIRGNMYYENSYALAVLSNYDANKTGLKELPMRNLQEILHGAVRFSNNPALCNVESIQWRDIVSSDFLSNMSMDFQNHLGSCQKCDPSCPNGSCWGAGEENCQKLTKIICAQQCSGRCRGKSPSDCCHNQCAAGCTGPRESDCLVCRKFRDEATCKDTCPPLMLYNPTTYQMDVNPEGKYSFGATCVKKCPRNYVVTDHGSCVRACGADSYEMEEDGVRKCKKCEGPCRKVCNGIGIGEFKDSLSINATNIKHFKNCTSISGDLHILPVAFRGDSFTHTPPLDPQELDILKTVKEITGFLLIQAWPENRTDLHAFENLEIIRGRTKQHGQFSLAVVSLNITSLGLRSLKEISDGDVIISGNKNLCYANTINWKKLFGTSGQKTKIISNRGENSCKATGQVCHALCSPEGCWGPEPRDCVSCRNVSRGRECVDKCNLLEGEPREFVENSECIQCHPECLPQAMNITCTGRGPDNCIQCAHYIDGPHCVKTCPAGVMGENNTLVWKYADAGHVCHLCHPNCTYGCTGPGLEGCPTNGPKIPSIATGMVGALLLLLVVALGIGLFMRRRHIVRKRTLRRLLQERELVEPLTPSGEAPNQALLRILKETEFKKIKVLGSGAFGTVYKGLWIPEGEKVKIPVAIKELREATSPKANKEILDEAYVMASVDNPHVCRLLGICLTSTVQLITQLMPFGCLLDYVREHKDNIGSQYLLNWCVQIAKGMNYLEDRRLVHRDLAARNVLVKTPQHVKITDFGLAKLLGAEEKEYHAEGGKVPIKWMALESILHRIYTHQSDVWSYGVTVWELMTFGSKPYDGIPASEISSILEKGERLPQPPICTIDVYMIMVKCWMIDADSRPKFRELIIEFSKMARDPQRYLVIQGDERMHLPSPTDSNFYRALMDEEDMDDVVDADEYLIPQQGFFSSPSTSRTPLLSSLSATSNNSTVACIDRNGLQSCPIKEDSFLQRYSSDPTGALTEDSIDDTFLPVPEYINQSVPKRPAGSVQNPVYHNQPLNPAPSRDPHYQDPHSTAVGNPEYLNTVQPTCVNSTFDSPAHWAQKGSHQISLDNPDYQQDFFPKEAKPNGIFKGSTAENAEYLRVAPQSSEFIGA

CCC(C)/C=C/C(=O)C(=O)/C=C/C=C/C=C/C=C/C=C/C=C/[C@@H]1C[C@@H](O)[C@H](C(=O)O)O1 (stereo partly specified) [COCHLIOBOLIC ACID]
IC50: 1600 nM

Source: ChEMBL document CHEMBL1145687, “Cochliobolic acid, a novel metabolite produced by Cochliobolus lunatus, inhibits binding of TGF-alpha to the EGF receptor in a SPA assay” (J Nat Prod, 1997)
